The source of these data is patent US8940719B2, “Lithocholic acid analogues that inhibit sialyltransferase” (Academia Sinica, priority 2006, dated 2015).

The target of one test is Rat liver α-2,3-ST (Rattus norvegicus (Rat), UniProt Q02734). Description: α-2,3-ST inhibition assay (IC50), RP-HPLC of sialylated disaccharide product. It counts as biochemical. Particulars: for fold potency increase over 19: vs compound 19. The protocol:
Compound synthesis was carried out with the following materials according the following general procedures. All chemicals and buffers were purchased from Sigma, Aldrich, or Acros Organics; and all amino acids were purchased from Advanced Chemtech. CMP-Neu5Ac was synthesized starting with sialic acid (Traving & Schauer, Cell. Mol. Life Sci., 1998, 54:1330; Schwarzkopf et al., Proc. Natl. Acad. Sci. USA, 2002, 99:5267). Synthesis of lactose acceptor was achieved as described in Harduin-Lepers et al., Biochimie, 2001, 83:727. Rat liver α-2,3-ST was obtained from CalBiochem at a concentration of 3.7 mU/μL, stored at −80° C., and used within one week. Melting points (m.p.) were recorded with a capillary melting point apparatus (Electrothermal MEL-TEMP); FT-IR spectra were recorded with Perkin Elmer FT-IR Spectrometer (Paragon 1000) in KBr pellets; ^1H and ^13C NMR spectra were recorded with Bruker AMX400 or 500 MHz instruments. Proton chemical shifts (δ) are reported in parts per million (ppm) relative to the methine singlet at 7.24 ppm for the residual CHCl3 in the deuteriochloroform, or the methyl pentet at 3.30 ppm for the residual CHD2OD in the methanol-d4. Carbon chemical shifts are reported in ppm relative to the internal ^13C signals in CDCl3 (77.0 ppm) and CD3OD-d4 (49.0 ppm). Mass spectra were obtained with a FAB JMS-700 double focusing mass spectrometer (JEOL, Tokyo, Japan), MALDI Voyager DE-PRO (Applied Biosystem Houston, USA), and ESI Finnigan LCQ mass spectrometer (Thermo Finnigan, San Jose, Calif., United States) in negative mode. […] The separation procedure was performed using H2O/0.1% trifluoroacetic acid (TFA) (A) and CH3CN/0.05% TFA (B) as eluents.
Each compound was tested for α-2,3-ST inhibition using CMP-Neu5Ac as a substrate and a modified disaccharide with a 4,5-dimethoxy-2-nitrobenzyl group as a UV-labeled acceptor. Specifically, inhibition assays were performed in triplicate in reaction solution containing 200 mM MES buffer, 100 mM sodium chloride, 0.5 mM disodium-EDTA, 0.01% Triton X-100, 20 μM modified disaccharide, 1.4 mU α-2,3-ST and inhibitor (in dimethyl sulfoxide) in a total volume of 55. Reactions were incubated at 37° C. for 10 minutes at which point 1 mM CMP-Neu5Ac (to a final concentration 3 μM) was added. The solution was then incubated at 37° C. until a detectable amount of product was produced. The reaction was terminated by quenching the solution mixture with heat at 100° C. for 5 minutes. Enzyme activity was determined by monitoring the quantity of sialylated disaccharide product produced over time at 348 nm by RP-HPLC (Supelco Discovery® HS C18, 5 μm, 4.6 mm×25 cm).

The next test relates to CL1-5 lung cancer cells. As to the kind of experiment: Cytotoxicity / cell growth, trypan blue exclusion. Particulars: 5 μM or 10 μM, 48 hours, FBS-free media. In kind it is cell-based. The method, then:
To determine the effect of the synthesized membrane-permeable α-2,3-ST inhibitors disclosed in Example 1 on cellular processes, in vitro cytotoxicity and adhesion assays were performed on the highly metastatic lung cancer cell line CL1-5. CL1-5 cells were plated at 1×10^6 cells per 60 mm culture dish in DMEM containing 10% fetal bovine serum (FBS) in 5% CO2. The following day the media was replaced with FBS-free media containing inhibitors at 5 μM or 10 μM concentration in DMSO. Controls cells were treated with 0.1% DMSO-containing medium without inhibitor. Cell number and viability were determined 48 hours later by trypan blue exclusion. Treatment with three α-2,3-ST inhibitors, N-Pentyonic (compound 21), Lith-Triethyl-de (compound 20), and Lith-o-Asp (compound 13), inhibited CL1-5 cell growth by between 10-20% compared to control (FIG. 2A).

Where [1] appears, read: α-2,3-ST, CMP-Neu5Ac substrate, triplicate, read-out: IC50.

Read-outs that look alike come from different tables or passages of the source. Bounds are passed on as bounds.

Rat liver α-2,3-ST, sequence (Q02734 whole entry): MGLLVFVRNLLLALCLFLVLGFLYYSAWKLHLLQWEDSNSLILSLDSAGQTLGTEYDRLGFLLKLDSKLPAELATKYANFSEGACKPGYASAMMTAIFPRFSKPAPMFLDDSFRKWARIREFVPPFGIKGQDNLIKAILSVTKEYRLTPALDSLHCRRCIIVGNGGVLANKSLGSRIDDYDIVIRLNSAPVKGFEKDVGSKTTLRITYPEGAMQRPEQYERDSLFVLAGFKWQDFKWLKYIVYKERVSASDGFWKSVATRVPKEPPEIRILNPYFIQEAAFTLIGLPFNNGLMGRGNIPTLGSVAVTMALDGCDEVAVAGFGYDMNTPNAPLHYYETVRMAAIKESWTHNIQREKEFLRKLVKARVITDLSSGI

Usually IC50 stands for the point on the concentration scale where inhibition reaches its midpoint. On to `C[C@H](CCC(=O)NCC(=O)O)C1CC[C@H]2C3CC[C@@H]4C[C@H](OC(=O)CCC(=O)O)CC[C@]4(C)C3CC[C@]12C` (stereo partly drawn) [Compound 15, 4-((3R,5R,10S,13R,14S)-17-((R)-5-(carboxymethylamino)-5-oxopentan-2-yl)-10,13-dimethyl-hexadecahydro-1H-cyclopenta[a]phenanthren-3-yloxy)-4-oxobutanoic acid], for which the concentration for half-maximal inhibition (IC50) on Rat liver α-2,3-ST (setting [1]) came to 0.022 mM.
As to `C[C@H](CCCO)C1CC[C@H]2C3CC[C@@H]4C[C@H](O)CC[C@]4(C)C3CC[C@]12C` (stereo partly drawn) [Compound 7, (3R,5R,10S,13R,14S)-17-((R)-5-hydroxypentan-2-yl)-10,13-dimethyl-hexadecahydro-1H-cyclopenta[a]phenanthren-3-ol], at Rat liver α-2,3-ST (vs lithocholic acid), the “fold decrease in potency relative to lithocholic acid” value is listed as 5 to 17 fold. The half-maximal inhibitory concentration (IC50) at Rat liver α-2,3-ST (setting [1]) is 0.351 mM.
With `C[C@H](CCC(=O)O)C1CC[C@H]2C3CC[C@@H]4C[C@H](OC(=O)[C@H](N)CC(=O)O)CC[C@]4(C)C3CC[C@]12C` (stereo partly drawn) [Compound 17, (R)-4-((3R,5R,10S,13R,14S)-3-((R)-2-amino-3-carboxypropanoyloxy)-10,13-dimethyl-hexadecahydro-1H-cyclopenta[a]phenanthren-17-yl)pentanoic acid], on Rat liver α-2,3-ST (vs compound 13), the “fold improvement in potency over 13” value is recorded as 2 fold. At Rat liver α-2,3-ST (setting [1]), the half-maximal inhibitory concentration (IC50) was determined as 0.006 mM.
In the case of `C[C@H](CCC(=O)O)[C@H]1CC[C@H]2[C@@H]3CC[C@@H]4C[C@H](O)CC[C@]4(C)[C@H]3CC[C@]12C` [lithocholic acid], the concentration for half-maximal inhibition (IC50) on Rat liver α-2,3-ST (steroid screen for α-2,3-ST inhibition, unit mM, read-out: IC50 value) is 0.021 mM.
For `C[C@H](CCC(=O)N[C@@H](CC(=O)O)C(=O)O)C1CC[C@H]2C3CC[C@@H]4C[C@H](OC(=O)CCC(=O)O)CC[C@]4(C)C3CC[C@]12C` (stereo partly drawn) [Compound 16, (S)-2-((R)-4-((3R,5R,10S,13R,14S)-3-(3-carboxypropanoyloxy)-10,13-dimethyl-hexadecahydro-1H-cyclopenta[a]phenanthren-17-yl)pentanamido)succinic acid], the half-inhibitory concentration (IC50) on Rat liver α-2,3-ST (setting [1]) came to 0.018 mM.
The same measure, in the same setting: next, `C[C@H](CCC(=O)NCC(=O)O)C1CC[C@H]2C3CC[C@@H]4C[C@H](O)CC[C@]4(C)C3CC[C@]12C` (stereo partly drawn) [Compound 9, 2-((R)-4-((3R,5R,10S,13R,14S)-3-hydroxy-10,13-dimethyl-hexadecahydro-1H-cyclopenta[a]phenanthren-17-yl)pentanamido)acetic acid]: 0.025 mM; `C[C@H](CCCn1cc(CC(N)C(=O)O)nn1)C1CC[C@H]2C3CC[C@@H]4C[C@H](O)CC[C@]4(C)C3CC[C@]12C` (stereo partly drawn) [Compound 19, 2-amino-3-(1-((R)-4-((3R,5R,10S,13R,14S)-3-hydroxy-10,13-dimethyl-hexadecahydro-1H-cyclopenta[a]phenanthren-17-yl)pentyl)-1H-1,2,3-triazol-4-yl)propanoic acid]: 0.083 mM.
For the compound `CCOP(=O)(OCC)C(Cc1cn(CCC[C@@H](C)C2CC[C@H]3C4CC[C@@H]5C[C@H](O)CC[C@]5(C)C4CC[C@]23C)nn1)C(=O)O` (stereo partly drawn) [Compound 20, 2-(diethoxyphosphoryl)-3-(1-((R)-4-((3R,5R,10S,13R,14S)-3-hydroxy-10,13-dimethyl-hexadecahydro-1H-cyclopenta[a]phenanthren-17-yl)pentyl)-1H-1,2,3-triazol-4-yl)propanoic acid], the “inhibition of CL1-5 cell growth compared to control” value with CL1-5 lung cancer cells is reported as 10-20%. Also, the “fold potency increase over 19” value on Rat liver α-2,3-ST was 8-12 fold. For the same compound, the IC50 at Rat liver α-2,3-ST (setting [1]) was 0.007 mM.
Take `C[C@H](CCC(=O)OC(C)(C)C)C1CC[C@H]2C3CC[C@@H]4C[C@H](OC(=O)CCC(=O)O)CC[C@]4(C)C3CC[C@]12C` (stereo partly drawn) [Compound 14, 4-((3R,5R,10S,13R,14S)-17-((R)-5-tert-butoxy-5-oxopentan-2-yl)-10,13-dimethyl-hexadecahydro-1H-cyclopenta[a]phenanthren-3-yloxy)-4-oxobutanoic acid]: the IC50 on Rat liver α-2,3-ST (setting [1]) was 0.013 mM.
Regarding `C[C@H](CCC(=O)O)C1CC[C@H]2C3CC[C@@H]4C[C@H](OC(=O)CCC(=O)O)CC[C@]4(C)C3CC[C@]12C` (stereo partly drawn) [Compound 12, (R)-4-((3R,5R,10S,13R,14S)-3-(3-carboxypropanoyloxy)-10,13-dimethyl-hexadecahydro-1H-cyclopenta[a]phenanthren-17-yl)pentanoic acid], at Rat liver α-2,3-ST (vs lithocholic acid), the “fold potency over lithocholic acid” value amounted to 2 fold. The IC50 at Rat liver α-2,3-ST (setting [1]) worked out at 0.012 mM.
For the compound `C[C@H](CCCn1cc(CCO)nn1)C1CC[C@H]2C3CC[C@@H]4C[C@H](O)CC[C@]4(C)C3CC[C@]12C` (stereo partly drawn) [Compound 18, (3R,5R,10S,13R,14S)-17-((R)-5-(4-(2-hydroxyethyl)-1H-1,2,3-triazol-1-yl)pentan-2-yl)-10,13-dimethyl-hexadecahydro-1H-cyclopenta[a]phenanthren-3-ol], on Rat liver α-2,3-ST (vs compound 21), the “fold less potent than 21” value is given as “at least 10 fold”. Besides, the “fold less potent than 22” value on Rat liver α-2,3-ST (vs compound 22) is on record as not below 20 fold. Further, the IC50 at Rat liver α-2,3-ST (setting [1]) was more than 0.1 mM.
Regarding `C[C@H](CCCn1cc(CCC(=O)O)nn1)C1CC[C@H]2C3CC[C@@H]4C[C@H](O)CC[C@]4(C)C3CC[C@]12C` (stereo partly drawn) [Compound 21, 3-(1-((R)-4-((3R,5R,10S,13R,14S)-3-hydroxy-10,13-dimethyl-hexadecahydro-1H-cyclopenta[a]phenanthren-17-yl)pentyl)-1H-1,2,3-triazol-4-yl)propanoic acid], in the test on CL1-5 lung cancer cells, the “inhibition of CL1-5 cell growth compared to control” value is reported as 10-20%. Also, the “fold potency increase over 19” value at Rat liver α-2,3-ST is on record as 8-12 fold. The IC50 at Rat liver α-2,3-ST (setting [1]) came to 0.01 mM.
For the compound `C[C@H](CCC(=O)O)C1CC[C@H]2C3CC[C@@H]4CC(=O)CC[C@]4(C)C3CC[C@]12C` (stereo partly drawn) [Compound 11, (R)-4-((5R,10S,13R,14S)-10,13-dimethyl-3-oxo-hexadecahydro-1H-cyclopenta[a]phenanthren-17-yl)pentanoic acid], the “fold decrease in potency relative to lithocholic acid” value at Rat liver α-2,3-ST (vs lithocholic acid) turned out to be 7 fold. Also, the half-inhibitory concentration (IC50) on Rat liver α-2,3-ST (setting [1]) amounted to 0.139 mM.
The corresponding values for `C[C@H](CCCOP(=O)(Oc1ccccc1)Oc1ccccc1)C1CC[C@H]2C3CC[C@@H]4C[C@H](O)CC[C@]4(C)C3CC[C@]12C` (stereo partly drawn) [Compound 8, (R)-4-((3R,5R,10S,13R,14S)-3-hydroxy-10,13-dimethyl-hexadecahydro-1H-cyclopenta[a]phenanthren-17-yl)pentyl diphenyl phosphonate] are 5 to 17 fold and more than 0.1 mM.
Take `C[C@H](CCC(=O)N[C@@H](CC(=O)O)C(=O)O)C1CC[C@H]2C3CC[C@@H]4C[C@H](O)CC[C@]4(C)C3CC[C@]12C` (stereo partly drawn) [Compound 10, (S)-2-((R)-4-((3R,5R,10S,13R,14S)-3-hydroxy-10,13-dimethyl-hexadecahydro-1H-cyclopenta[a]phenanthren-17-yl)pentanamido)succinic acid]: the IC50 on Rat liver α-2,3-ST (setting [1]) was 0.016 mM.
